According to ChEMBL document CHEMBL3988442, “University of Dundee, Small-Polar-MMV Screening Library” (2021):

Assays:
[1] = microbe, parasite or virus in culture; settings: Mycobacterium tuberculosis, 96 h, read-out: pIC50 (converted)
[2] = microbe, parasite or virus in culture; settings: Mycobacterium tuberculosis, 72 h, read-out: pIC50 (converted)

| SMILES | IC50 [1] [µM] | IC50 [2] [µM] |
| --- | --- | --- |
| CC(=O)N1CCCC1c1nnc2n1CCCCC2 (stereo unspecified) | > 50.1 | > 50.1 |
| CN(CCS(=O)(=O)c1ccc(Cl)cc1)CC(=O)N(C)C | 105 | 63.6 |
| CCOc1ccc(CNC(=O)CCn2cccn2)cc1 | > 501 | 148 |
| Cc1cccc(NCCC(=O)NC2CCCC2)n1 | > 501 | 122 |
| CC(=O)NCC(Cc1cccc(F)c1)n1cccc1 (stereo unspecified) | 42.5 | > 50.1 |
| CCc1ccc(C(=O)N2CCN(Cc3ccc(F)cc3)CC2)s1 | 28.4 | 19.9 |
| CC(=O)Nc1nc(C(=O)NCCOc2ccc(C)cc2)cs1 | > 50.1 | > 50.1 |
| CN(C)CCNC(=O)c1ccc(Cl)cc1 | > 501 | > 501 |
| CCc1ccc(CN(C)C(=O)c2cccn2C)nc1 | 257 | 175 |
| COc1ccc(C(N)CO)c2ccccc12 (stereo unspecified) | 313 | 193 |
| COCC(=O)N1CCCN(Cc2cc(C(C)C)no2)CC1 | > 50.1 | > 50.1 |
| N#Cc1ccc(NC(=O)Cn2ccnc2)cc1 | > 501 | > 501 |
| Cc1nc(NC(C)C)nc2c1CN(Cc1cccs1)CC2 | 27 | > 50.1 |
| CC1CCN(C(=O)c2cnn(-c3cccnc3)c2)CC1 | 67.4 | 307 |
| COCCCNC(=O)c1coc(Br)c1 | 116 | 118 |
| c1ccc(CNc2cc(-n3cccn3)ncn2)cc1 | > 501 | 11.2 |
| CCCC(=O)NC(C)(C)Cc1ccccc1OC | > 50.1 | 3.52 |
| C=Cc1ccc(C(=O)N2CCCC(Nc3ccc(F)c(F)c3)C2)cc1 (stereo unspecified) | 40.8 | > 50.1 |
| Cc1cncc(NCc2ccccc2N2CCOCC2)c1 | 6.18 | 6.63 |
| Cc1c(CN2CCSCC2)cccc1NS(C)(=O)=O | > 501 | > 501 |
| CN(Cc1ccccc1Br)C(=O)c1nccnc1N | > 501 | > 501 |
| COC(CNC(=O)N1CCSCC1)c1ccc(F)cc1 (stereo unspecified) | > 501 | > 501 |
| Cc1cc(C(=O)NCC(CO)c2ccccc2)ns1 (stereo unspecified) | 130 | 103 |
| CC(OC(=O)c1ccc(C(F)(F)F)cc1)C(N)=O (stereo unspecified) | 466 | 229 |
| C=C(C)COc1ccc(C(=O)NCC[C@@H](C)CO)cc1 | 283 | 440 |
| CN(Cc1cnccn1)S(=O)(=O)c1ccc(C(F)(F)F)nc1 | > 50.1 | > 50.1 |
| NS(=O)(=O)c1cccc(S(=O)(=O)c2ccc(Cl)cc2)c1 | 283 | 71.4 |

| SMILES | IC50 [1] [µM] | IC50 [2] [µM] |
| --- | --- | --- |
| Nc1nnc(SCC(=O)NCCc2cccc(Cl)c2)s1 | > 501 | 287 |
| Cc1csc(CNC(=O)c2ccco2)n1 | > 501 | > 501 |
| c1cnc(-c2nc(C3CCOC3)no2)cn1 (stereo unspecified) | > 50.1 | > 50.1 |
| CN(C)c1cc2c(nn1)CCN(C(=O)c1cc3ccccc3[nH]c1=O)C2 | > 50.1 | > 50.1 |
| CN(Cc1cccnc1)C(=O)c1cc(Cl)c[nH]1 | 333 | 281 |
| Cc1cccc(NC(=O)CN(C)Cc2nnsc2Cl)n1 | > 501 | 246 |
| CCOc1cc([C@H]2N[C@@H](c3nc(C)cs3)Cc3ccsc32)ccc1OC | > 50.1 | 12.8 |
| NCc1ccc(OC2CCCCC2)nc1 | > 501 | > 501 |
| Fc1cccc(-c2noc(C3CCCN3)n2)c1 (stereo unspecified) | 286 | 271 |
| NCC(O)c1ccc(Cl)c(F)c1 (stereo unspecified) | > 501 | 252 |
| O=C(c1cccc(-n2cccn2)n1)N1CCCC1 | 163 | 59.6 |
| CN(C)C(=O)CSCC(=O)NCc1ccc(Cl)cc1 | > 501 | 86.8 |
| NC(=O)c1cc(S(=O)(=O)NCCc2ccccc2)cs1 | > 501 | 247 |
| COC(=O)CNC(=O)c1nc(Br)sc1C(C)C | > 50.1 | > 50.1 |
| Cc1ccc(-c2nc(CNC(C)Cn3cccn3)cs2)o1 (stereo unspecified) | > 50.1 | > 50.1 |
| O=C(NC1CCCCC1)c1ccc(CO)cc1 | 143 | 161 |
| CCC1(CO)CCCN(CCn2cc(Cl)cn2)C1 (stereo unspecified) | 144 | 138 |
| CC(C)Oc1cccc(-c2cnn(CCC(N)=O)c2)c1 | 382 | 264 |
| O=C1CCCCN1Cn1cc(I)cn1 | 318 | 251 |
| CC(C)Nc1ncccc1C(=O)Nc1nncs1 | > 501 | > 501 |
| COc1cccc2c1CCCCN2C(=O)c1oc(C)nc1C | > 50.1 | > 50.1 |
| Cc1nsc(C(=O)NCCc2cccs2)n1 | 32.7 | 13.5 |
| Cc1ccc(NC(=O)C(C)N2CCC(O)CC2)cc1F (stereo unspecified) | 284 | 200 |
| N#CCCSc1nnc(Cc2ccccc2F)o1 | > 50.1 | > 50.1 |
| Cc1nnc(SC[C@H](O)COCc2ccccc2)s1 | 133 | 209 |
| CCNC(=O)c1cc(N2CCCC(C)CC2)ccn1 (stereo unspecified) | 237 | 143 |
